For data set [1], the system named is HIV-IIIb. The data set is described as follows: Test A: Antiviral Assay in MT4 Cells. It counts as cell-based, HIV-1. To be noted: Human immunodeficiency virus 1, IIIB, MT4, 120 h; for inhibition at 0.2 µM: read-out: % inhibition at 0.2 μM; for inhibition at 2 µM: read-out: % inhibition at 2 μM. How it is done:
Test A: Antiviral Assay in MT4 Cells
MT-4 cells were next mixed with HIV-IIIb at an m.o.i of 0.003 for 1 hour, after which time 35 μL of virus/cell mixture (2000 cells) was immediately added to each well containing 40 μL of diluted compound. The plates were then incubated at 37° C. for 5 days. […] Cell lysis was carried out by incubating at room temperature for 10 min and then chemiluminescence was read.

Data set [2] in a line: Test B: Cytotoxicity Assay. It counts as cell-based. To be noted: human, uninfected MT-4 cells, same protocol as Test A. In outline:
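Uninfected MT-4 cells (2000 per well) incubated with diluted compound at 37° C. for 5 days, following the antiviral protocol without HIV-IIIb.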

Molecules are shown by their SMILES.

In general, inhibition refers to the drop in the measured response relative to a control, in per cent. The term CC50 denotes the concentration at which the toxic effect on the cells reaches its halfway point. A lower CC50 goes with harm at low concentration. Turning to `CC(=O)Nc1nn(C)c2c(-c3ccc(C#CC(C)(C)O)nc3[C@H](Cc3cc(F)cc(F)c3)NC(=O)Cn3nc(C(F)F)c4c3C(F)(F)[C@@H]3C[C@H]43)ccc(Cl)c12` [Compound 94, N—((S)-1-(3-(3-acetamido-4-chloro-1-methyl-1H-indazol-7-yl)-6-(3-hydroxy-3-methylbut-1-yn-1-yl)pyridin-2-yl)-2-(3,5-difluorophenyl)ethyl)-2-((3b-S,4aR)-3-(difluoromethyl)-5,5-difluoro-3b,4,4a,5-tetrahydro-1H-cyclopropa[3,4]cyclopenta[1,2-c]pyrazol-1-yl)acetamide], in data set [1], the inhibition at 0.2 µM stood at 100% and the inhibition at 2 µM is 100%. The compound also yielded a CC50 at 5 days in data set [2] of 7.58 µM.

As for `COc1ccc(-c2ccc(C#CC(C)(C)C)nc2[C@H](Cc2cc(F)cc(F)c2)NC(=O)Cn2nc(C(F)F)c3c2C(F)(F)[C@@H]2C[C@H]32)c2nnc(NS(C)(=O)=O)n12` [Compound 130, 2-((3bS,4aR)-3-(difluoromethyl)-5,5-difluoro-3b,4,4a,5-tetrahydro-1H-cyclopropa[3,4]cyclopenta[1,2-c]pyrazol-1-yl)-N—((S)-2-(3,5-difluorophenyl)-1-(6-(3,3-dimethylbut-1-yn-1-yl)-3-(5-methoxy-3-(methylsulfonamido)-[1,2,4]triazolo[4,3-a]pyridin-8-yl)pyridin-2-yl)ethyl)acetamide], in data set [1], the inhibition at 0.2 µM came out at 80% and the inhibition at 2 µM stood at 85%. The compound also gave a CC50 at 5 days in data set [2] of 23.2 µM.

As to `Cn1nc(NS(C)(=O)=O)c2c(Cl)ccc(-c3ccc(-c4cnn(C(C)(C)C)c4)nc3[C@H](Cc3cc(F)cc(F)c3)NC(=O)Cn3nc(C(F)F)c4c3C(F)(F)[C@@H]3C[C@H]43)c21` [Compound 168B, N—((S)-1-(6-(1-(tert-butyl)-1H-pyrazol-4-yl)-3-(4-chloro-1-methyl-3-(methylsulfonamido)-1H-indazol-7-yl)pyridin-2-yl)-2-(3,5-difluorophenyl)ethyl)-2-((3b-S,4aR)-3-(difluoromethyl)-5,5-difluoro-3b,4,4a,5-tetrahydro-1H-cyclopropa[3,4]cyclopenta[1,2-c]pyrazol-1-yl)acetamide], in data set [1], the inhibition at 0.2 µM was 90% and the inhibition at 2 µM was 90%. The compound further showed a CC50 at 5 days in data set [2] above 53.2 µM.

On to `CCC(O)(C#Cc1ccc(-c2cccc3c(NS(C)(=O)=O)nn(C)c23)c([C@H](Cc2cc(F)cc(F)c2)NC(=O)Cn2nc(C(F)(F)F)c3c2C(F)(F)[C@@H]2C[C@H]32)n1)CC` [Compound 66, 2-((3bS,4aR)-5,5-difluoro-3-(trifluoromethyl)-3b,4,4a,5-tetrahydro-1H-cyclopropa[3,4]cyclopenta[1,2-c]pyrazol-1-yl)-N—((S)-2-(3,5-difluorophenyl)-1-(6-(3-ethyl-3-hydroxypent-1-yn-1-yl)-3-(1-methyl-3-(methylsulfonamido)-1H-indazol-7-yl)pyridin-2-yl)ethyl)acetamide], for which, in data set [1], the inhibition at 0.2 µM was 97% and the inhibition at 2 µM is 97%. Moreover, the 50% cytotoxic concentration (CC50) at 5 days in data set [2] amounted to 6.96 µM.

With `CNS(=O)(=O)Nc1nn(C)c2c(-c3ccc(C#CC(C)(C)O)nc3[C@H](Cc3cc(F)cc(F)c3)NC(=O)Cn3nc(C(F)F)c4c3C(F)(F)[C@@H]3C[C@H]43)ccc(Cl)c12` [Compound 123, N—((S)-1-(3-(4-chloro-1-methyl-3-((N-methylsulfamoyl)amino)-1H-indazol-7-yl)-6-(3-hydroxy-3-methylbut-1-yn-1-yl)pyridin-2-yl)-2-(3,5-difluorophenyl)ethyl)-2-((3b-S,4aR)-3-(difluoromethyl)-5,5-difluoro-3b,4,4a,5-tetrahydro-1H-cyclopropa[3,4]cyclopenta[1,2-c]pyrazol-1-yl)acetamide], in data set [1], the inhibition at 0.2 µM was 90% and the inhibition at 2 µM came out at 90%. The compound further yielded a CC50 at 5 days in data set [2] of 7.9 µM.

As for `CN1CCN(S(=O)(=O)Nc2nn(C)c3c(-c4ccc(C#CC(C)(C)O)nc4[C@H](Cc4cc(F)cc(F)c4)NC(=O)Cn4nc(C(F)(F)F)c5c4C(F)(F)[C@@H]4C[C@H]54)cccc23)CC1` [Compound 56F, 2-((3bS,4aR)-5,5-difluoro-3-(trifluoromethyl)-3b,4,4a,5-tetrahydro-1H-cyclopropa[3,4]cyclopenta[1,2-c]pyrazol-1-yl)-N—((S)-2-(3,5-difluorophenyl)-1-(6-(3-hydroxy-3-methylbut-1-yn-1-yl)-3-(1-methyl-3-(4-methylpiperazine-1-sulfonamido)-1H-indazol-7-yl)pyridin-2-yl)ethyl)acetamide], in data set [1], the inhibition at 0.2 µM worked out at 97% and the inhibition at 2 µM amounted to 97%. In data set [2], the midpoint of cytotoxicity, the CC50 at 5 days, lay at 19 µM.

Take `CC(C)(O)C#Cc1ncc(-c2ccc3c(c2)C(=O)NC3)c([C@H](Cc2cc(F)cc(F)c2)NC(=O)Cn2nc(C(F)(F)F)c3c2C(F)(F)[C@@H]2C[C@H]32)n1` [Compound 22C, 2-((3bS,4aR)-5,5-difluoro-3-(trifluoromethyl)-3b,4,4a,5-tetrahydro-1H-cyclopropa[3,4]cyclopenta[1,2-c]pyrazol-1-yl)-N—((S)-2-(3,5-difluorophenyl)-1-(2-(3-hydroxy-3-methylbut-1-yn-1-yl)-5-(3-oxoisoindolin-5-yl)pyrimidin-4-yl)ethyl)acetamide]: in data set [1], the inhibition at 0.2 µM worked out at 92% and the inhibition at 2 µM stood at 92%. In data set [2], this compound registered a CC50 at 5 days of 4.95 µM.

With `CC(C)(O)C#Cc1ccc(-c2ccc(Cl)n3c(N)nnc23)c([C@H](Cc2cc(F)cc(F)c2)NC(=O)Cn2nc(C(F)(F)F)c3c2C(F)(F)[C@@H]2C[C@H]32)n1` [Compound 111, N—((S)-1-(3-(3-amino-5-chloro-[1,2,4]triazolo[4,3-a]pyridin-8-yl)-6-(3-hydroxy-3-methylbut-1-yn-1-yl)pyridin-2-yl)-2-(3,5-difluorophenyl)ethyl)-2-((3b-S,4aR)-5,5-difluoro-3-(trifluoromethyl)-3b,4,4a,5-tetrahydro-1H-cyclopropa[3,4]cyclopenta[1,2-c]pyrazol-1-yl)acetamide], in data set [1], the inhibition at 0.2 µM was determined as 89% and the inhibition at 2 µM is 90%. In data set [2], this compound returned a CC50 at 5 days of 9.59 µM.

On to `Cn1nc(NS(C)(=O)=O)c2c(Cl)ccc(-c3ccc(C#CC(C)(O)CNC(=O)OC(C)(C)C)nc3[C@H](Cc3cc(F)cc(F)c3)NC(=O)Cn3nc(C(F)(F)F)c4c3C(F)(F)[C@@H]3C[C@H]43)c21` (stereo partly drawn) [Compound 184, tert-butyl (4-(5-(4-chloro-1-methyl-3-(methylsulfonamido)-1H-indazol-7-yl)-6-((S)-1-(2-((3bS,4aR)-5,5-difluoro-3-(trifluoromethyl)-3b,4,4a,5-tetrahydro-1H-cyclopropa[3,4]cyclopenta[1,2-c]pyrazol-1-yl)acetamido)-2-(3,5-difluorophenyl)ethyl)pyridin-2-yl)-2-hydroxy-2-methylbut-3-yn-1-yl)carbamate], for which, in data set [1], the inhibition at 0.2 µM turned out to be 90% and the inhibition at 2 µM stood at 90%. Also, the CC50 at 5 days in data set [2] amounted to 7.69 µM.

For `Cn1nc(NS(C)(=O)=O)c2c(Cl)ccc(-c3ccc(C#CC(C)(C)O)nc3[C@H](Cc3cc(F)cc(F)c3)NC(=O)Cn3nc(Cl)c4c3C(F)(F)[C@@H]3C[C@H]43)c21` [Compound 149, N—((S)-1-(3-(4-chloro-1-methyl-3-(methylsulfonamido)-1H-indazol-7-yl)-6-(3-hydroxy-3-methylbut-1-yn-1-yl)pyridin-2-yl)-2-(3,5-difluorophenyl)ethyl)-2-((3bS,4aR)-3-chloro-5,5-difluoro-3b,4,4a,5-tetrahydro-1H-cyclopropa[3,4]cyclopenta[1,2-c]pyrazol-1-yl)acetamide], in data set [1], the inhibition at 0.2 µM was found to be 86% and the inhibition at 2 µM came out at 86%. Moreover, the CC50 at 5 days in data set [2] stood at 26.7 µM.

With `CC(C)(O)C#Cc1ccc(-c2cccc3c(N)noc23)c([C@H](Cc2cc(F)cc(F)c2)NC(=O)Cn2nc(C(F)(F)F)c3c2C(F)(F)[C@@H]2C[C@H]32)n1` [Compound 69, N—((S)-1-(3-(3-aminobenzo[d]isoxazol-7-yl)-6-(3-hydroxy-3-methylbut-1-yn-1-yl)pyridin-2-yl)-2-(3,5-difluorophenyl)ethyl)-2-((3b-S,4aR)-5,5-difluoro-3-(trifluoromethyl)-3b,4,4a,5-tetrahydro-1H-cyclopropa[3,4]cyclopenta[1,2-c]pyrazol-1-yl)acetamide], in data set [1], the inhibition at 0.2 µM stood at 77% and the inhibition at 2 µM is 77%. The same compound returned a CC50 at 5 days in data set [2] of 0.718 µM.

As to `CNc1nn(C)c2c(-c3ccc(C#CC(C)(C)O)nc3[C@H](Cc3cc(F)cc(F)c3)NC(=O)Cn3nc(C(F)F)c4c3C(F)(F)[C@@H]3C[C@H]43)ccc(Cl)c12` [Compound 81, N—((S)-1-(3-(4-chloro-1-methyl-3-(methylamino)-1H-indazol-7-yl)-6-(3-hydroxy-3-methylbut-1-yn-1-yl)pyridin-2-yl)-2-(3,5-difluorophenyl)ethyl)-2-((3bS,4aR)-3-(difluoromethyl)-5,5-difluoro-3b,4,4a,5-tetrahydro-1H-cyclopropa[3,4]cyclopenta[1,2-c]pyrazol-1-yl)acetamide], in data set [1], the inhibition at 0.2 µM was 100% and the inhibition at 2 µM is 100%. Besides, the CC50 at 5 days in data set [2] is 12.5 µM.

Regarding `Cc1ccc(-c2ccc(C#CC(C)(C)C)nc2[C@H](Cc2cc(F)cc(F)c2)NC(=O)Cn2nc(C(F)F)c3c2C(F)(F)[C@@H]2C[C@H]32)c2nnc(NS(C)(=O)=O)n12` [Compound 133, 2-((3bS,4aR)-3-(difluoromethyl)-5,5-difluoro-3b,4,4a,5-tetrahydro-1H-cyclopropa[3,4]cyclopenta[1,2-c]pyrazol-1-yl)-N—((S)-2-(3,5-difluorophenyl)-1-(6-(3,3-dimethylbut-1-yn-1-yl)-3-(5-methyl-3-(methylsulfonamido)-[1,2,4]triazolo[4,3-a]pyridin-8-yl)pyridin-2-yl)ethyl)acetamide], in data set [1], the inhibition at 0.2 µM worked out at 90% and the inhibition at 2 µM was found to be 90%. Also, the CC50 at 5 days in data set [2] came out at 16.8 µM.

These data come from patent US20140303164A1, “THERAPEUTIC COMPOUNDS” (Gilead Sciences, Inc., priority 2013, published 2014).
